Source: patent US20220380320A1 (priority 2019, published 2022)

Assays:
in vitro = details: African green monkey
MERS-CoV = assay: microbe, parasite or virus in culture; type: cell-based; details: for EC50: Middle East respiratory syndrome-related coronavirus, Vero, 24 h

| Structure (SMILES) | toxicity to host cells (vero cells (ATCC CCL-81)) | CC50 (in vitro) [µM] | SI (MERS-CoV) | EC50 (MERS-CoV) [µM] |
| --- | --- | --- | --- | --- |
| Cc1cccc(C)c1OCC(=O)N[C@@H](Cc1ccccc1)[C@@H](O)C[C@H](Cc1ccccc1)NC(=O)[C@H](Cc1ccc(F)cc1)N1CCCNC1=O [Compound 7, (S)-N-((2S,4S,5S)-5-(2-(2,6-dimethylphenoxy)acetamido)-4-hydroxy-1,6-diphenylhexane-2-yl)-3-(4-fluorophenyl)-2-(2-oxotetrahydropyrimidin-1(2H)-yl)propanamide] | minimal toxicity | > 50 | 23.96 | 2.09 |
| Cc1cccc(C)c1OCC(=O)N[C@@H](Cc1ccccc1)[C@@H](O)C[C@H](Cc1ccccc1)NC(=O)C1(N2CCCNC2=O)CCCC1 [Compound 4, N-((2S,4S,5S)-5-(2-(2,6-dimethylphenoxy)acetamido)-4-hydroxy-1,6-diphenylhexan-2-yl)-1-(2-oxotetrahydropyrimidine-1 (2H)-yl) cyclopentanecarboxamide] | minimal toxicity | > 50 | 6.53 | 7.66 |
| Cc1cccc(C)c1OCC(=O)N[C@@H](Cc1ccccc1)[C@@H](O)C[C@H](Cc1ccccc1)NC(=O)[C@](C)(C(C)C)N1CCCNC1=O [Compound 2, (S)-N-((2S,4S,5S)-5-(2-(2,6-dimethylphenoxy)acetamido)-4-hydroxy-1,6-diphenylhexane-2-yl)-2,3-dimethyl-2-(2-oxotetrahydropyrimidin-1(2H)-yl)butanamide] | minimal toxicity | > 50 |  |  |
| Cc1cccc(C)c1OCC(=O)N[C@@H](Cc1ccccc1)[C@@H](O)C[C@H](Cc1ccccc1)NC(=O)[C@@](C)(C(C)C)N1CCCNC1=O [Compound 3, (R)-N-((2S,4S,5S)-5-(2-(2,6-dimethylphenoxy)acetamido)-4-hydroxy-1,6-diphenylhexane-2-yl)-2,3-dimethyl-2-(2-oxotetrahydropyrimidin-1(2H)-yl)butanamide] | minimal toxicity | > 50 |  |  |
| Cc1cccc(C)c1OCC(=O)N[C@@H](Cc1ccccc1)[C@@H](O)C[C@H](Cc1ccccc1)NC(=O)[C@H](Cc1ccc(C#N)cc1)N1CCCNC1=O [Compound 9, (S)-3-(4-cyanophenyl)-N-((2S,4S,5S)-5-(2-(2,6-dimethylphenoxy)acetamido)-4-hydroxy-1,6-diphenylhexan-2-yl)-2-(2-oxotetrahydropyrimidin-1(2H)-yl)propanamide] | minimal toxicity | > 50 | 19.33 | 2.59 |
| Cc1cccc(C[C@@H](C(=O)N[C@@H](Cc2ccccc2)C[C@H](O)[C@H](Cc2ccccc2)NC(=O)COc2c(C)cccc2C)N2CCCNC2=O)c1 [Compound 5, (S)-N-((2S,4S,5S)-5-(2-(2,6-dimethylphenoxy)acetamido)-4-hydroxy-1,6-diphenylhexane-2-yl)-2-(2-oxotetrahydropyrimidin-1(2H)-yl)-3-(m-tolyl)propanamide] | minimal toxicity | > 50 | 17.91 | 2.79 |
| Cc1cccc(C)c1OCC(=O)N[C@@H](Cc1ccccc1)[C@@H](O)C[C@H](Cc1ccccc1)NC(=O)[C@H](Cc1ccc(C(F)(F)F)cc1)N1CCCNC1=O [Compound 8, (S)-N-((2S,4S,5S)-5-(2-(2,6-dimethylphenoxy)acetamido)-4-hydroxy-1,6-diphenylhexane-2-yl)-2-(2-oxotetrahydropyrimidin-1(2H)-yl)-3-(4-(trifluoromethyl)phenyl)propanamide] | minimal toxicity | > 50 | 40.88 | 1.22 |
| Cc1cccc(C)c1OCC(=O)N[C@@H](Cc1ccccc1)[C@@H](O)C[C@H](Cc1ccccc1)NC(=O)[C@H](Cc1ccccc1)N1CCCNC1=O [Compound 1, (S)-N-((2S,4S,5S)-5-(2-(2,6-dimethylphenoxy)acetamido)-4-hydroxy-1,6-diphenylhexane-2-yl)-2-(2-oxotetrahydropyrimidin-1(2H)-yl)-3-phenylpropanamide] | minimal toxicity | > 50 | 21.74 | 2.03 |
| Cc1cccc(C)c1OCC(=O)N[C@@H](Cc1ccccc1)[C@@H](O)C[C@H](Cc1ccccc1)NC(=O)[C@H](C(C)C)N1CCCNC1=O [Positive control, Lopinavir, reference compound] |  | > 50 | 4.78 | 10.5 |
| Cc1cccc(C)c1OCC(=O)N[C@@H](Cc1ccccc1)[C@@H](O)C[C@H](Cc1ccccc1)NC(=O)[C@H](Cc1cccs1)N1CCCNC1=O [Compound 10, (S)-N-((2S,4S,5S)-5-(2-(2,6-dimethylphenoxy)acetamido)-4-hydroxy-1,6-diphenylhexane-2-yl)-2-(2-oxotetrahydropyrimidin-1(2H)-yl)-3-(thiophen-2-yl)propenamide] | minimal toxicity | > 50 | 15.06 | 3.32 |
